± gives the standard deviation of the averaged measurements.
Tests used:
[1] = compound: CC(=O)NCC(=O)N1[C@@H]2CC[C@H]1c1ccc(Nc3ncc(C(F)(F)F)c(NC4CCC4)n3)cc12; assay: surviving fraction relative to DMSO-only wells; higher = less growth inhibition; conditions: exposure time: 5 days
Method in brief: (§1)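 Each tumour cell line was screened three times, and only lines with replicate Pearson r >0.7 and median Z' >0.3 were kept. Cells in log phase were seeded at 250–500 per well in 384-well plates, left 24 hours, then exposed continuously for five days to inhibitors at 0.5, 1, 5, 10, 50, 100, 500 and 1000 nM. Viability was read as CellTiter-Glo luminescence, with surviving fraction normalised to the median of DMSO-only wells.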

CARBOPLATIN = compound: O=C(O)C1(C(=O)O)CCC1.[NH2-].[NH2-].[Pt+2] [CARBOPLATIN]; assay: as above; conditions: exposure time: 5 days
Method in brief: as §1

Test System | surviving fraction ([1]; 0.5 nM) | surviving fraction ([1]; 1 nM) | surviving fraction ([1]; 5 nM) | surviving fraction ([1]; 10 nM) | surviving fraction ([1]; 50 nM) | surviving fraction ([1]; 100 nM) | surviving fraction ([1]; 500 nM) | surviving fraction ([1]; 1000 nM) | surviving fraction (CARBOPLATIN; 0.5 nM) | surviving fraction (CARBOPLATIN; 1 nM) | surviving fraction (CARBOPLATIN; 5 nM) | surviving fraction (CARBOPLATIN; 10 nM) | surviving fraction (CARBOPLATIN; 50 nM) | surviving fraction (CARBOPLATIN; 100 nM) | surviving fraction (CARBOPLATIN; 500 nM) | surviving fraction (CARBOPLATIN; 1000 nM)
VP229 BREAST | 1.08 ± 0.051 | 1.1 ± 0.12 | 1.02 ± 0.15 | 0.999 ± 0.04 | 0.917 ± 0.046 | 0.548 ± 0.016 | 0.624 ± 0.031 | 0.556 ± 0.057 | 1.12 ± 0.14 | 1.05 ± 0.022 | 1.11 ± 0.12 | 0.961 ± 0.088 | 1.17 ± 0.21 | 1.05 ± 0.025 | 1.19 ± 0.096 | 0.956 ± 0.14
93VU HEADNECK | 0.823 ± 0.059 | 0.803 ± 0.035 | 0.951 ± 0.029 | 1 ± 0.061 | 0.895 ± 0.055 | 0.682 ± 0.0098 | 0.331 ± 0.043 | 0.114 ± 0.021 | 1.19 ± 0.012 | 1.13 ± 0.055 | 1.26 ± 0.097 | 1.24 ± 0.21 | 1.27 ± 0.091 | 1.28 ± 0.09 | 1.19 ± 0.027 | 1.21 ± 0.1
BT549 BREAST | 1.11 ± 0.058 | 1.09 ± 0.046 | 1.04 ± 0.12 | 1.05 ± 0.073 | 0.993 ± 0.1 | 0.494 ± 0.071 | 0.409 ± 0.071 | 0.237 ± 0.014 | 1.08 ± 0.038 | 1.19 ± 0.04 | 1.06 ± 0.081 | 1.05 ± 0.03 | 1.05 ± 0.097 | 1.2 ± 0.072 | 0.967 ± 0.034 | 1.16 ± 0.032
OS25HAL BONE | 0.962 ± 0.045 | 0.9613 ± 0.0038 | 0.97 ± 0.024 | 0.947 ± 0.015 | 0.796 ± 0.062 | 0.605 ± 0.092 | 0.428 ± 0.069 | 0.264 ± 0.029 | 1.09 ± 0.045 | 1.03 ± 0.019 | 0.994 ± 0.034 | 1.03 ± 0.019 | 1.18 ± 0.025 | 1.17 ± 0.053 | 1.06 ± 0.04 | 1.14 ± 0.029
SCC003 HEADNECK | 0.911 ± 0.056 | 0.889 ± 0.096 | 1.05 ± 0.06 | 1.02 ± 0.027 | 0.988 ± 0.043 | 0.636 ± 0.063 | 0.425 ± 0.035 | 0.397 ± 0.076 | 1.1 ± 0.075 | 1.06 ± 0.04 | 1.1 ± 0.039 | 1.04 ± 0.025 | 1.14 ± 0.027 | 1.03 ± 0.035 | 1.13 ± 0.17 | 0.995 ± 0.051
CHLA90 AUTONOMIC GANGLIA | 0.951 ± 0.025 | 0.983 ± 0.046 | 0.96 ± 0.028 | 0.91 ± 0.039 | 0.754 ± 0.032 | 0.5867 ± 0.0055 | 0.436 ± 0.045 | 0.301 ± 0.037 | 0.925 ± 0.057 | 0.943 ± 0.072 | 0.923 ± 0.058 | 0.917 ± 0.045 | 1.14 ± 0.11 | 1.11 ± 0.098 | 1.09 ± 0.097 | 1.13 ± 0.14
MCF7 BREAST | 0.864 ± 0.018 | 0.858 ± 0.028 | 0.808 ± 0.034 | 0.826 ± 0.021 | 0.776 ± 0.018 | 0.741 ± 0.027 | 0.656 ± 0.035 | 0.549 ± 0.026 | 0.942 ± 0.053 | 0.867 ± 0.048 | 0.995 ± 0.049 | 0.898 ± 0.042 | 0.968 ± 0.05 | 0.949 ± 0.068 | 0.984 ± 0.092 | 0.892 ± 0.018
CAL72 BONE | 1.06 ± 0.039 | 1.09 ± 0.051 | 1.12 ± 0.057 | 1.04 ± 0.011 | 0.917 ± 0.032 | 0.846 ± 0.022 | 0.571 ± 0.025 | 0.419 ± 0.026 | 1.05 ± 0.081 | 1.03 ± 0.094 | 1.06 ± 0.035 | 1.06 ± 0.052 | 1.12 ± 0.084 | 1.03 ± 0.23 | 1.1 ± 0.11 | 1.01 ± 0.15
HCC1395 BREAST | 0.928 ± 0.15 | 1.05 ± 0.12 | 0.979 ± 0.062 | 1.04 ± 0.0025 | 0.962 ± 0.12 | 0.94 ± 0.13 | 0.991 ± 0.027 | 0.928 ± 0.092 | 1.16 ± 0.058 | 1.1 ± 0.044 | 1.16 ± 0.071 | 1.198 ± 0.0097 | 1.15 ± 0.16 | 1.18 ± 0.062 | 1.17 ± 0.13 | 1.04 ± 0.1
MDAMB134 BREAST | 0.998 ± 0.048 | 1.07 ± 0.37 | 1.01 ± 0.04 | 1.02 ± 0.11 | 0.992 ± 0.041 | 1.25 ± 0.18 | 1.13 ± 0.12 | 1.31 ± 0.1 | 0.906 ± 0.03 | 0.837 ± 0.13 | 0.856 ± 0.18 | 0.837 ± 0.033 | 1.01 ± 0.11 | 0.969 ± 0.24 | 1.05 ± 0.033 | 0.8405 ± 0.0021
HCC1954 BREAST | 0.891 ± 0.079 | 0.784 ± 0.085 | 1.17 ± 0.054 | 0.986 ± 0.042 | 0.828 ± 0.022 | 0.745 ± 0.14 | 1.07 ± 0.021 | 0.905 ± 0.11 | 1.36 ± 0.11 | 1.02 ± 0.072 | 1.4 ± 0.31 | 1.52 ± 0.31 | 1.05 ± 0.15 | 0.954 ± 0.013 | 1.07 ± 0.062 | 0.836 ± 0.12
SIHA CERVIX | 0.799 ± 0.044 | 0.859 ± 0.034 | 0.933 ± 0.053 | 0.978 ± 0.042 | 1.01 ± 0.064 | 0.801 ± 0.046 | 0.631 ± 0.046 | 0.531 ± 0.034 | 1.14 ± 0.065 | 1.18 ± 0.038 | 1.13 ± 0.088 | 1.21 ± 0.094 | 1.16 ± 0.1 | 1.21 ± 0.044 | 1.08 ± 0.048 | 1.14 ± 0.02
HOSMNG BONE | 0.997 ± 0.028 | 1.01 ± 0.06 | 0.962 ± 0.033 | 0.989 ± 0.016 | 0.886 ± 0.088 | 0.874 ± 0.041 | 0.449 ± 0.019 | 0.392 ± 0.0087 | 1.06 ± 0.025 | 1.02 ± 0.059 | 1.03 ± 0.075 | 1.05 ± 0.036 | 1.22 ± 0.069 | 1.23 ± 0.015 | 1.091 ± 0.0096 | 1.19 ± 0.013
HU09 BONE | 1.05 ± 0.082 | 1.01 ± 0.03 | 1.08 ± 0.075 | 1.11 ± 0.078 | 0.67 ± 0.024 | 0.583 ± 0.011 | 0.3 ± 0.0061 | 0.179 ± 0.023 | 0.977 ± 0.027 | 0.955 ± 0.056 | 1.17 ± 0.069 | 1.09 ± 0.021 | 1.09 ± 0.046 | 1.11 ± 0.13 | 1.09 ± 0.076 | 1.07 ± 0.12
MG63 BONE | 0.974 ± 0.0053 | 0.966 ± 0.015 | 0.99 ± 0.024 | 0.987 ± 0.013 | 0.816 ± 0.003 | 0.594 ± 0.021 | 0.298 ± 0.021 | 0.227 ± 0.007 | 1.08 ± 0.043 | 1 ± 0.023 | 1.08 ± 0.031 | 1.07 ± 0.045 | 1.08 ± 0.034 | 1.076 ± 0.004 | 1.05 ± 0.055 | 1.01 ± 0.032
SUM159 BREAST | 1.11 ± 0.22 | 1.08 ± 0.16 | 1.1 ± 0.21 | 1.07 ± 0.16 | 0.956 ± 0.085 | 0.72 ± 0.027 | 0.56 ± 0.014 | 0.436 ± 0.0095 | 1.12 ± 0.024 | 1.1 ± 0.02 | 1.1 ± 0.016 | 1.09 ± 0.024 | 1.09 ± 0.022 | 1.09 ± 0.015 | 1.11 ± 0.022 | 1.092 ± 0.01
MDAMB157 BREAST | 0.954 ± 0.082 | 0.854 ± 0.042 | 0.858 ± 0.081 | 0.895 ± 0.064 | 0.79 ± 0.11 | 0.498 ± 0.068 | 0.431 ± 0.077 | 0.216 ± 0.041 | 1.04 ± 0.1 | 0.881 ± 0.024 | 1.02 ± 0.11 | 1.04 ± 0.066 | 1.06 ± 0.12 | 0.957 ± 0.056 | 0.949 ± 0.084 | 0.943 ± 0.13
CAL120 BREAST | 0.923 ± 0.051 | 0.9253 ± 0.0041 | 0.945 ± 0.029 | 0.9333 ± 0.0076 | 0.8605 ± 0.0059 | 0.643 ± 0.025 | 0.489 ± 0.053 | 0.387 ± 0.047 | 1.02 ± 0.044 | 0.927 ± 0.023 | 1.02 ± 0.04 | 0.977 ± 0.027 | 1.02 ± 0.044 | 0.993 ± 0.033 | 0.986 ± 0.04 | 0.976 ± 0.034
ZR751 BREAST | 0.874 ± 0.18 | 0.927 ± 0.062 | 0.923 ± 0.12 | 0.925 ± 0.04 | 0.774 ± 0.1 | 1.04 ± 0.094 | 0.815 ± 0.062 | 0.897 ± 0.038 | 1.16 ± 0.2 | 1.23 ± 0.071 | 1.14 ± 0.13 | 1.18 ± 0.23 | 1.2 ± 0.099 | 1.18 ± 0.25 | 1.26 ± 0.15 | 1.24 ± 0.22
SYO1 SYNOVIAL | 0.943 ± 0.061 | 0.955 ± 0.024 | 0.93 ± 0.08 | 0.893 ± 0.078 | 0.388 ± 0.06 | 0.266 ± 0.027 | 0.2212 ± 0.0014 | 0.237 ± 0.013 | 1.04 ± 0.028 | 0.986 ± 0.023 | 1.06 ± 0.027 | 0.9793 ± 0.0044 | 0.998 ± 0.019 | 1.01 ± 0.035 | 0.99 ± 0.065 | 0.972 ± 0.028
CCK81 LARGE INTESTINE |  |  |  |  |  |  |  |  | 0.883 ± 0.042 | 0.866 ± 0.092 | 0.835 ± 0.083 | 0.831 ± 0.093 | 0.77 ± 0.038 | 0.782 ± 0.081 | 0.784 ± 0.082 | 0.725 ± 0.043
